# Test results published in patent US12202868B1, “Stapled and specifically targeted antimicrobial peptide” (KING SAUD UNIVERSITY, priority 2024, dated 2025).
# Like-named read-outs stand apart in the source and are kept apart here. Positions of bridges follow the written chain, without caps; N, C: chain ends. Non-standard residues stand in square brackets, D forms with d. Residues, ends and D or L forms follow the SMILES beside them. S5 = C=CCCC[C@](C)(N)C(=O)O
# Legend:
# E. coli [1] = system: E. coli
# Kleibsella pneumonia [2] = assay: organism not typed; assay type: cell-based; settings: 30 μl in 6 mm well, ssTAMP 100 μg/ml, Kanamycin 10 μg/ml, 24 hours, mean±SD, n=3
# Protocol: (§1) Microbial cultures were procured from the microbiology department, College of Pharmacy, King Saud University, Riyadh. Strains were grown aerobically at 37° C. with shaking in Muller Hilton media.
# (§2) The agar diffusion method was used to examine the synthesized ssTAMP's antibacterial activity. Pure colonies of Bacillus subtilis, Streptococcus pneumonia, Staphalycoccus aureus, Streptococcus mutans, Escherichia coli, and Kleibsella pneumonia were used for antibacterial susceptibility testing according to Clinical Laboratory Standards Institute (CLSI) 2021 guidelines by using a modified Kirby-Bauer disk diffusion technique. In brief, homogeneous colonies were chosen from each microbial strain and grown on Mullar Hilton broth at log phase. 0.5 McFarland standard culture was used to spread on to the Mullar Hilton agar plates. Freshly prepared 30 μl each of Kanamycin 10 μg/ml and ssTAMP 100 μg/ml was poured into 6 mm diameter well, blank well with equivalent amount of saline served as a […]. The plates were incubated for 24 hours, and the diameter of the inhibition zone was measured to determine if the findings were susceptible or resistant. The full analysis was carried out three times.
# (§3) The agar diffusion method was used to test antimicrobial susceptibility of sSTAMP against B. Subtilis, S. Pneumoniae, S. Aureus, S. Mutans, E. Coli, and Kleibsella pneumonia strains (FIG. 1).
# S. mutans [3] = system: S. mutans
# S. aureus [4] = assay: microbe, parasite or virus in culture; settings: Staphylococcus aureus, read-out: Minimum Inhibitory concentration
# B. subtilis [5] = assay: microbe, parasite or virus in culture; settings: Bacillus subtilis, read-out: Minimum Inhibitory concentration
# S. pneumonia [6] = assay: microbe, parasite or virus in culture; settings: Streptococcus pneumoniae, read-out: Minimum Inhibitory concentration
# S. mutans [7] = assay: microbe, parasite or virus in culture; settings: Streptococcus mutans, read-out: Minimum Inhibitory concentration
# Kleibsella pneumonia [8] = assay: organism not typed; settings: read-out: Minimum Inhibitory concentration
# B. subtilis [9] = system: B. subtilis
# E. coli [10] = assay: microbe, parasite or virus in culture; settings: Escherichia coli, read-out: Minimum Inhibitory concentration
# Bacillus subtilis = assay: microbe, parasite or virus in culture; assay type: cell-based; settings: B. subtilis, 30 μl in 6 mm well, ssTAMP 100 μg/ml, Kanamycin 10 μg/ml, 24 hours, mean±SD, n=3
# Protocol: as §1, §2, §3
# Escherichia coli = assay: microbe, parasite or virus in culture; assay type: cell-based; settings: E. coli, 30 μl in 6 mm well, ssTAMP 100 μg/ml, Kanamycin 10 μg/ml, 24 hours, mean±SD, n=3
# Protocol: as §1, §2, §3
# Streptococcus mutans = assay: microbe, parasite or virus in culture; assay type: cell-based; settings: S. mutans, 30 μl in 6 mm well, ssTAMP 100 μg/ml, Kanamycin 10 μg/ml, 24 hours, mean±SD, n=3
# Protocol: as §1, §2, §3
# Staphylococcus aureus = assay: microbe, parasite or virus in culture; assay type: cell-based; settings: S. aureus, 30 μl in 6 mm well, ssTAMP 100 μg/ml, Kanamycin 10 μg/ml, 24 hours, mean±SD, n=3
# Protocol: as §1, §2, §3
# Streptococcus pneumonia = assay: microbe, parasite or virus in culture; assay type: cell-based; settings: S. pneumonia, 30 μl in 6 mm well, ssTAMP 100 μg/ml, Kanamycin 10 μg/ml, 24 hours, mean±SD, n=3
# Protocol: as §1, §2, §3
# Kleibsella pneumonia [11] = system: Kleibsella pneumonia
# S. pneumonia [12] = system: S. pneumonia
# S. aureus [13] = system: S. aureus
# A549 lung cancer cells = assay type: cell-based; settings: human, 24 h
# Protocol: (§4) MCF-7 and A549 cells were cultured under aseptic conditions at 37° C. and 5% CO2 using Dulbecco's Modified Eagle's Medium (DMEM), accompanied with 1% mixture of “Penicillin-Streptomycin”, and 10% Fetal Bovine Serum (FBS). The cells were processed and grown in a sterile environment and all the procedures were done in a biosafety cabinet. The cells were harvested using 0.25% trypsin containing EDTA and phenol red, once they reached around 80% confluency. To test the in-vitro toxicity of the antimicrobial peptide, the harvested cells were seeded in 96 well plates for conducting a cell viability assay using MTT (3-(4,5-dimethylthiazol-2-yl)-2,5-diphenyl tetrazolium bromide).
# (§5) In order to investigate the in-vitro cytotoxicity of ssTAMP using the MTT assay, cell viability was carried out in MCF-7 and A549 cells. To achieve a cell density of 5×10^5 cells/mL, trypsin was introduced to the cells during their exponential phase of growth. After that, 100 μL of media and the cell suspension (15000 cells/well) were placed on a flat-bottomed microplate, where they were left to attach to the bottom overnight. The following day, 10 μL of freshly prepared medium containing ssTAMP concentrations ranging from 7.81 to 1000 µg/mL was added to the preexisting medium. As a negative control, a triplicate of untreated, FBS-free DMEM were used. Each product's dilution was tested three times. After 24 hours, the media was carefully removed from the wells. After that, 10 μL of MTT solution (5 mg/mL in PBS) and 90 μL of the medium were added. After that, this combination was incubated for 4 hours at room temperature. The medium and MTT in the culture fluid were then drawn out, leaving the formazan crystal precipitate. Formazan was dissolved for 15 minutes at room temperature in a […]. At 570 nm, the absorbance was measured (Synergy HT, BioTek Inst., VT, USA). Cell viability was calculated as a percentage of the absorbance when compared with negative control considered as 100%. The cytotoxic effects of ssTAMP on MCF-7 and A549 cells were expressed as IC50 values.
# (§6) The percentage cell viabilities of MCF-7 breast cancer cells and A549 lung cancer cells against varying concentrations of ssTAMP are presented in FIGS. 3A-3B. […] The cytotoxicity starts to appear at the lowest concentration of ssTAMP used (7.81 μg/mL in MCF-7, and 15.62 μg/mL in A549). The effect pattern of the ssTAMP in both the cell lines is similar up to the concentration of 250 μg/mL. However MCF-7 appear to be more sensitive at higher concentrations of ssTAMP above 250 μg/mL.
# [14] = system: MCF-7 breast cancer cells; assay type: cell-based; settings: human, 24 h
# Protocol: as §4, §5, §6
# [15] = E. coli, microdilution, overnight 37° C., mean±SD, n=3
# [16] = S. mutans, microdilution, overnight 37° C., mean±SD, n=3
# [17] = B. subtilis, microdilution, overnight 37° C., mean±SD, n=3
# [18] = Kleibsella pneumonia, microdilution, overnight 37° C., mean±SD, n=3
# [19] = S. pneumonia, microdilution, overnight 37° C., mean±SD, n=3
smiles,measurement,setting,value
NC[C@H]1O[C@H](O[C@H]2[C@H](O)[C@@H](O[C@H]3O[C@H](CO)[C@@H](O)[C@H](N)[C@H]3O)[C@H](N)C[C@@H]2N)[C@H](O)[C@@H](O)[C@@H]1O [Kanamycin],Minimum Inhibitory concentration,E. coli [1]; [15],1.46 ± 0.55 µg/mL
same,Zone of inhibition,Kleibsella pneumonia [2],15.10 ± 0.74 mm
same,zone of inhibition at 10 µg/mL,Kleibsella pneumonia [2],15.1 ± 0.74 mm
same,Minimum Inhibitory concentration,S. mutans [3]; [16],1.04 ± 0.21 µg/mL
same,MIC,S. aureus [4],1.67 ± 0.42 µg/mL
same,MIC,B. subtilis [5],1.67 ± 0.42 µg/mL
same,MIC,S. pneumonia [6],1.67 ± 0.42 µg/mL
same,MIC,S. mutans [7],1.04 ± 0.21 µg/mL
same,MIC,Kleibsella pneumonia [8],1.25 µg/mL
same,Minimum Inhibitory concentration,B. subtilis [9]; [17],1.67 ± 0.42 µg/mL
same,MIC,E. coli [10],1.46 ± 0.55 µg/mL
same,Zone of inhibition,Bacillus subtilis,16.40 ± 0.46 mm
same,zone of inhibition at 10 µg/mL,Bacillus subtilis; Bacillus subtilis,16.4 ± 0.46 mm
same,Zone of inhibition,Escherichia coli,14.90 ± 0.25 mm
same,zone of inhibition at 10 µg/mL,Escherichia coli; Escherichia coli,14.9 ± 0.25 mm
same,Zone of inhibition,Streptococcus mutans,18.37 ± 0.58 mm
same,zone of inhibition at 10 µg/mL,Streptococcus mutans; Streptococcus mutans,18.4 ± 0.58 mm
same,Zone of inhibition,Staphylococcus aureus,16.07 ± 0.45 mm
same,zone of inhibition at 10 µg/mL,Staphylococcus aureus; Staphylococcus aureus,16.1 ± 0.45 mm
same,Zone of inhibition,Streptococcus pneumonia,15.70 ± 0.4 mm
same,zone of inhibition at 10 µg/mL,Streptococcus pneumonia; Streptococcus pneumoniae,15.7 ± 0.4 mm
same,Minimum Inhibitory concentration,Kleibsella pneumonia [11]; [18],1.25 ± 0.00 µg/mL
same,Minimum Inhibitory concentration,S. pneumonia [12]; [19],1.67 ± 0.42 µg/mL
CC[C@H](C)[C@H](NC(=O)[C@H](CCCNC(=N)N)NC(=O)[C@H](CCCCN)NC(=O)[C@]1(C)CCCC=CCCC[C@](C)(NC(=O)[C@H](CCCCN)NC(=O)[C@H](CCC(=O)O)NC(=O)[C@H](CCCCN)NC(=O)[C@H](CO)NC(=O)[C@H](CCCCN)NC(=O)[C@H](CCCNC(=N)N)NC(=O)[C@H](Cc2ccccc2)NC(=O)[C@H](Cc2ccccc2)NC(=O)CNC(=O)CNC(=O)[C@H](CC(N)=O)NC(=O)[C@H](CCCNC(=N)N)NC(=O)[C@H](Cc2ccccc2)NC(=O)[C@@H](NC(=O)[C@H](C)NC(=O)[C@@H](NC(=O)[C@H](CC(=O)O)NC(=O)[C@H](CCCCN)NC(=O)[C@H](CCC(=O)O)NC(=O)CNC(=O)[C@@H](NC(=O)[C@H](CO)NC(=O)[C@@H]2CCCN2C(=O)[C@@H](N)CC(C)C)[C@@H](C)O)[C@@H](C)O)C(C)C)C(=O)NCC(=O)N[C@@H](CCCCN)C(=O)N[C@@H](CCC(=O)O)C(=O)N1)C(=O)N[C@H](C(N)=O)C(C)C [ssTAMP] (H-LPSTGEKDTAVFRNGGFFRKSKEK[S5]GKE[S5]KRIV-NH2; staple 25-29; N-terminus assumed),Minimum Inhibitory concentration,E. coli [1],5.21 ± 1.05 µg/mL
same,Minimum Inhibitory concentration,E. coli [1]; [15],5.21 ± 1.05 µg/mL
same,Minimum Inhibitory concentration,S. aureus [13],12.50 ± 0.000 µg/mL
same,Minimum Inhibitory concentration,"S. aureus [13]; S. aureus, microdilution, overnight 37° C., mean±SD, n=3",12.50 ± 0.000 µg/mL
same,Zone of inhibition,Kleibsella pneumonia [2],23.47±1.40 mm
same,Minimum Inhibitory concentration,S. mutans [3],8.33 ± 2.08 µg/mL
same,Minimum Inhibitory concentration,S. mutans [3]; [16],8.33 ± 2.08 µg/mL
same,"IC50, cytotoxicity by MTT assay",A549 lung cancer cells,265.0 µg/mL
same,cells viable,A549 lung cancer cells; 250 μg/ml,more than 50%
same,"IC50, cytotoxicity by MTT assay",[14],558.2 µg/mL
same,cells viable,[14]; 250 μg/ml,more than 50%
same,Minimum Inhibitory concentration,B. subtilis [9],8.33 ± 2.08 µg/mL
same,Minimum Inhibitory concentration,B. subtilis [9]; [17],8.33 ± 2.08 µg/mL
same,Zone of inhibition,Bacillus subtilis,20.63±0.85 mm
same,Zone of inhibition,Escherichia coli,24.30±1.08 mm
same,Zone of inhibition,Streptococcus mutans,22.23±1.39 mm
same,Zone of inhibition,Staphylococcus aureus,9.60±0.32 mm
same,Zone of inhibition,Streptococcus pneumonia,20.17±0.72 mm
same,Minimum Inhibitory concentration,Kleibsella pneumonia [11],5.21 ± 1.042 µg/mL
same,Minimum Inhibitory concentration,Kleibsella pneumonia [11]; [18],5.21 ± 1.042 µg/mL
same,Minimum Inhibitory concentration,S. pneumonia [12],10.42 ± 2.08 µg/mL
same,Minimum Inhibitory concentration,S. pneumonia [12]; [19],10.42 ± 2.08 µg/mL
